{"source": "patent US9475822B2", "about": "“Substituted 2- amidoquinazol-4-ones as matrix metalloproteinase-13 inhibitors” (Takeda Pharmaceutical Company Limited, priority 2004, dated 2016)", "key": {"[1]": {"target": "T1, MMP-13 (Homo sapiens, UniProt P45452)", "T1 construct": "purchased GenzymeTechne", "test": "MMP-13 inhibitory activity (fluorogenic peptide substrate enzyme assay)", "format": "biochemical", "details": "substrate Cy3-PLGLK(Cy5Q)AR-NH2, 37° C., 40 min", "experimental": "To 10 μg of MMP-13 precursor (GenzymeTechne) was added 1 ml of assay buffer (50 mM Tris-HCl (pH 7.5), 10 mM CaCl2, 150 mM NaCl, 0.05% Brij-35), and 4-aminophenylmercuric acid (Sigma) was added to the final concentration of 1 mM. The MMP-13 precursor was activated by incubating at 37° C. for 2 hrs.\nIn a 96 well black plate (Corning), to 6.3 ng/ml of MMP-13 solution (49 μl) diluted with assay buffer was added the test compound (1 μl) diluted with dimethyl sulfoxide (DMSO) and 620 nM Cy3-PLGLK(Cy5Q)AR—NH2 (50 μl, synthesized by Amersham Biosciences) in assay buffer was added to start the enzyme reaction. After incubation at 37° C. for 40 min, 500 mM EDTA solution (6 μl) was added to stop the reaction. For measurement, Farcyte (Amersham Biosciences) was used to measure at excitation wavelength 535 nm and measurement wavelength 595 nm.\nT: value of well with addition of DMSO instead of test compound\nC: value of well with addition of DMSO instead of test compound and addition of EDTA solution before addition of substrate solution\nX: value of well with addition of test compound"}, "[2]": {"details": "compound 1 μM, read-out: MMP-13 activity inhibitory rate (%)"}, "[3]": {"details": "read-out: MMP-13 activity inhibitory rate (%), compound 1 μM"}}, "note": "Where two headings read alike, the source gives them in different places.", "data": [{"smiles": "COc1cccc(CNC(=O)c2nc3ccccc3c(=O)[nH]2)c1", "note": "[Example 1, N-{[3-(methyloxy)phenyl]methyl}-4-oxo-3,4-dihydroquinazoline-2-carboxamide]", "values": [{"measurement": "inhibition at 1 µM", "setting": "[1]; [2]", "value": 91, "unit": "%"}]}, {"smiles": "COc1cccc(CNC(=O)c2nc3ccc(Cl)cc3c(=O)[nH]2)c1", "note": "[Example 83, 6-chloro-N-{[3-(methyloxy)phenyl]methyl}-4-oxo-3,4-dihydroquinazoline-2-carboxamide]", "values": [{"measurement": "melting point", "value": "203 to 206", "unit": "°C"}]}, {"smiles": "COc1cccc(CNC(=O)c2nc3ccc(N)cc3c(=O)[nH]2)c1", "note": "[Example 100, 6-amino-N-{[3-(methyloxy)phenyl]methyl}-4-oxo-3,4-dihydroquinazoline-2-carboxamide]", "values": [{"measurement": "melting point", "value": "223 to 225", "unit": "°C"}]}, {"smiles": "COc1cccc(CNC(=O)c2nc3ccc(I)cc3c(=O)[nH]2)c1", "note": "[Example 104, 6-iodo-N-{[3-(methyloxy)phenyl]methyl}-4-oxo-3,4-dihydroquinazoline-2-carboxamide]", "values": [{"measurement": "melting point", "value": "219 to 220", "unit": "°C"}]}, {"smiles": "COc1cccc(CNC(=O)c2nc3ccc(CN4CCOCC4)cc3c(=O)[nH]2)c1", "note": "[Example 116, N-{[3-(methyloxy)phenyl]methyl}-6-(morpholin-4-ylmethyl)-4-oxo-3,4-dihydroquinazoline-2-carboxamide]", "values": [{"measurement": "melting point", "value": "126 to 129", "unit": "°C"}]}, {"smiles": "COc1cccc(CNC(=O)c2nc3ccc(F)c(OCCc4ccc(C(=O)O)cc4)c3c(=O)[nH]2)c1", "note": "[Example 179, 4-[2-({6-Fluoro-2-[({[3-(methyloxy)phenyl]methyl}amino)carbonyl]-4-oxo-3,4-dihydroquinazolin-5-yl}oxy)ethyl]benzoic acid]", "values": [{"measurement": "inhibition at 1 µM", "setting": "[1]; [2]", "value": 99, "unit": "%"}]}, {"smiles": "COc1cccc(CNC(=O)c2nc3sccc3c(=O)[nH]2)c1", "note": "[Example 209, N-{[3-(methyloxy)phenyl]methyl}-4-oxo-3,4-dihydrothieno[2,3-d]pyrimidine-2-carboxamide]", "values": [{"measurement": "inhibition at 1 µM", "setting": "[1]; [2]", "value": 94, "unit": "%"}]}, {"smiles": "COc1cccc(CNC(=O)c2nc3scc(COCc4ccc(C(=O)O)cc4)c3c(=O)[nH]2)c1", "note": "[Example 217, 4-{[({2-[({[3-(methyloxy)phenyl]methyl}amino)carbonyl]-4-oxo-3,4-dihydrothieno[2,3-d]pyrimidin-5-yl}methyl)oxy]methyl}benzoic acid]", "values": [{"measurement": "MMP-13 activity inhibitory rate (%)", "setting": "[1]; compound 1 μM, 1 µM", "value": 100, "unit": "%"}]}, {"smiles": "COc1cccc(CNC(=O)c2nc3cnn(CCCc4ccccc4)c3c(=O)[nH]2)c1", "note": "[Example 243, N-(3-methoxybenzyl)-7-oxo-1-(3-phenylpropyl)-6,7-dihydro-1H-pyrazolo[4,3-d]pyrimidine-5-carboxamide]", "values": [{"measurement": "melting point", "value": "138 to 140", "unit": "°C"}]}, {"smiles": "COc1cc(CNC(=O)c2nc3cnn(CCCc4ccccc4)c3c(=O)[nH]2)ccc1F", "note": "[Example 244, N-(4-fluoro-3-methoxybenzyl)-7-oxo-1-(3-phenylpropyl)-6,7-dihydro-1H-pyrazolo[4,3-d]pyrimidine-5-carboxamide]", "values": [{"measurement": "melting point", "value": "155 to 157", "unit": "°C"}]}, {"smiles": "COc1cccc(CNC(=O)c2nc3cnn(CCOc4ccc(C(=O)O)cc4)c3c(=O)[nH]2)c1", "note": "[Example 250, 4-[2-(5-{[(3-methoxybenzyl)amino]carbonyl}-7-oxo-6,7-dihydro-1H-pyrazolo[4,3-d]pyrimidin-1-yl)ethoxy]benzoic acid]", "values": [{"measurement": "melting point", "value": "230 to 231", "unit": "°C"}]}, {"smiles": "CCOC(=O)Cc1csc2nc(C(=O)NCc3cccc(OC)c3)[nH]c(=O)c12", "note": "[Example 251, ethyl (2-{[(3-methoxybenzyl)amino]carbonyl}-4-oxo-3,4-dihydrothieno[2,3-d]pyrimidin-5-yl)acetate]", "values": [{"measurement": "melting point", "value": "169 to 171", "unit": "°C"}]}, {"smiles": "CCOC(=O)Cc1ccc(OCc2csc3nc(C(=O)NCc4cccc(OC)c4)[nH]c(=O)c23)cc1", "note": "[Example 256, ethyl {4-[(2-{[(3-methoxybenzyl)amino]carbonyl}-4-oxo-3,4-dihydrothieno[2,3-d]pyrimidin-5-yl)methoxy]phenyl}acetate]", "values": [{"measurement": "melting point", "value": "175 to 178", "unit": "°C"}]}, {"smiles": "COc1cccc(CNC(=O)c2nc3scc(COc4ccc(CC(=O)O)cc4)c3c(=O)[nH]2)c1", "note": "[Example 257, {4-[(2-{[(3-methoxybenzyl)amino]carbonyl}-4-oxo-3,4-dihydrothieno[2,3-d]pyrimidin-5-yl)methoxy]phenyl}acetic acid]", "values": [{"measurement": "melting point", "value": "228 to 230", "unit": "°C"}]}, {"smiles": "COc1cccc(CNC(=O)c2nc3ccc(F)c(OCCc4ccc(C(=O)O)cc4)c3c(=O)[nH]2)c1", "note": "[Example 286, Sodium 4-[2-({6-fluoro-2-[({[3-(methyloxy)phenyl]methyl}amino)carbonyl]-4-oxo-3,4-dihydroquinazolin-5-yl}oxy)ethyl]benzoate]", "values": [{"measurement": "inhibition at 1 µM", "setting": "[1]; [3]", "value": 97, "unit": "%"}]}, {"smiles": "COc1cccc(CNC(=O)c2nc3ccc(F)c(OCCc4ccc(C(=O)[O-])cc4)c3c(=O)[n-]2)c1.[Na+].[Na+]", "note": "[Example 287, Disodium 4-[2-({6-fluoro-2-[({[3-(methyloxy)phenyl]methyl}amino)carbonyl]-4-oxo-4H-quinazolin-3-id-5-yl}oxy)ethyl]benzoate]", "values": [{"measurement": "MMP-13 activity inhibitory rate (%)", "setting": "[1]; compound 1 μM", "value": 98, "unit": "%"}]}, {"smiles": "O=C(O)c1ccc(COCc2csc3nc(C(=O)NCc4ccc(F)c(Cl)c4)[nH]c(=O)c23)cc1", "note": "[Example 339, 4-[({[2-({[(3-chloro-4-fluorophenyl)methyl]amino}carbonyl)-4-oxo-3,4-dihydrothieno[2,3-d]pyrimidin-5-yl]methyl}oxy)methyl]benzoic acid]", "values": [{"measurement": "inhibition at 1 µM", "setting": "[1]; [2]", "value": 96, "unit": "%"}]}, {"smiles": "Cc1cc(CNC(=O)c2nc3scc(COCc4ccc(C(=O)O)cc4)c3c(=O)[nH]2)ccc1F", "note": "[Example 341, 4-[({[2-({[(4-fluoro-3-methylphenyl)methyl]amino}carbonyl)-4-oxo-3,4-dihydrothieno[2,3-d]pyrimidin-5-yl]methyl}oxy)methyl]benzoic acid]", "values": [{"measurement": "inhibition at 1 µM", "setting": "[1]; [2]", "value": 98, "unit": "%"}]}, {"smiles": "CCOc1cccc(CNC(=O)c2nc3scc(COCc4ccc(C(=O)O)cc4)c3c(=O)[nH]2)c1", "note": "[Example 366, 4-{[({2-[({[3-(ethyloxy)phenyl]methyl}amino)carbonyl]-4-oxo-3,4-dihydrothieno[2,3-d]pyrimidin-5-yl}methyl)oxy]methyl}benzoic acid]", "values": [{"measurement": "inhibition at 1 µM", "setting": "[1]; [2]", "value": 93, "unit": "%"}]}, {"smiles": "COc1cccc(CNC(=O)c2nc3scc(COCc4ccc(C(=O)O)cc4)c3c(=O)[nH]2)c1", "note": "[Example 383, Sodium 4-{[({2-[({[3-(methyloxy)phenyl]methyl}amino)carbonyl]-4-oxo-3,4-dihydrothieno[2,3-d]pyrimidin-5-yl}methyl)oxy]methyl}benzoate]", "values": [{"measurement": "inhibition at 1 µM", "setting": "[1]; [3]", "value": 91, "unit": "%"}]}, {"smiles": "COc1cccc(CNC(=O)c2nc3scc(COCc4ccc(C(=O)[O-])cc4)c3c(=O)[n-]2)c1.[Na+].[Na+]", "note": "[Example 384, Disodium 4-{[({2-[({[3-(methyloxy)phenyl]methyl}amino)carbonyl]-4-oxo-4H-thieno[2,3-d]pyrimidin-3-id-5-yl}methyl)oxy]methyl}benzoate]", "values": [{"measurement": "MMP-13 activity inhibitory rate (%)", "setting": "[1]; compound 1 μM", "value": 91, "unit": "%"}]}, {"smiles": "COc1cccc(CNC(=O)c2nc3scc(COCc4ccc(C(=O)[O-])cc4)c3c(=O)[nH]2)c1.[K+]", "note": "[Example 385, Potassium 4-{[({2-[({[3-(methyloxy)phenyl]methyl}amino)carbonyl]-4-oxo-3,4-dihydrothieno[2,3-d]pyrimidin-5-yl}methyl)oxy]methyl}benzoate]", "values": [{"measurement": "MMP-13 activity inhibitory rate (%)", "setting": "[1]; compound 1 μM", "value": 96, "unit": "%"}]}, {"smiles": "COc1cccc(CNC(=O)c2nc3scc(COCc4ccc(C(=O)O)cc4)c3c(=O)[nH]2)c1", "note": "[Example 386, Dipotassium 4-{[({2-[({[3-(methyloxy)phenyl]methyl}amino)carbonyl]-4-oxo-4H-thieno[2,3-d]pyrimidin-3-id-5-yl}methyl)oxy]methyl}benzoate]", "values": [{"measurement": "MMP-13 activity inhibitory rate (%)", "setting": "[1]; compound 1 μM, 1 µM", "value": 94, "unit": "%"}]}]}
